Key:
[1] = tested on: ApoE−/− mice; experiment: In vivo imaging of carotid atherosclerotic plaque, general and in-vivo fluorescence microscope; conditions: 14 mg/kg/week for four weeks, before vs after
Excerpt: In order to evaluate a possibility of reducing inflammation and a size of the atherosclerotic plaque in vivo of the drug carrier encapsulated with the lobeglitazone, the drug carrier encapsulated with the lobeglitazone was administrated in mice (ApoE−/− mice) causing the atherosclerosis at a carotid branch.
More particularly, the ApoE −/− mice with the atherosclerosis are divided into three groups, and then in the first group, a drug carrier encapsulated with a mannose receptor-specific lobeglitazone was administrated (14 mg/kg/week), in the second group, the same quantity of lobeglitazone was orally administrated (14 mg/kg/week), and in the third group, a treating drug was not administrated. After the drug was administrated for four weeks, the same carotid branch portion was peeled and the size and the inflammation degree of the atherosclerotic plaque before and after treatment were observed and compared by a general microscope and an in-vivo fluorescence microscope.
Particularly, the effect of treating atherosclerosis was evaluated by comparing and analyzing an atherosclerotic size and an inflammation degree before administrating the drug and after administrating the drug for four weeks by administrating a glycol chitosan-based drug carrier (attached with a fluorescent material) capable of imaging an atherosclerotic plaque selectively bound to the mannose receptor over-expressed in the macrophage to an atherosclerotic model mouse and then peeling the carotid branch portion to image the carotid branch portion by an in-vivo fluorescence microscope.
In order to objectively quantify the inflammation degree expressed in the atherosclerotic plaque, a signal of autofluorescence or more of the atherosclerotic plaque measured in the Experimental Example 4 was extracted to quantify the range of signal expression and the degree of signal intensity.

[2] = tested on: ApoE−/− mice; experiment: Histopathology of carotid atherosclerotic plaque: H&E, MAC3 and CD 206 staining; type: in vivo; conditions: after four weeks (FIG. 9)
Description: Further, the effect of treating atherosclerosis of the drug carrier encapsulated with the lobeglitazone was evaluated by histopathologically analyzing the size of the atherosclerotic plaque reflecting the inflammation degree of the atherosclerotic plaque, distribution of the macrophages, and expression of mannose receptors in the macrophage. The atherosclerotic plaque of the carotid extracted from the arteriosclerosis model mouse was stained by H&E staining, MAC3 staining (macrophage staining), and CD 206 staining (macrophage mannose receptor staining).
FIG. 9 is a photograph illustrating sizes of atherosclerotic plaques by using H&E staining, MAC3 staining, and CD 206 staining in the group administered with the drug carrier according to an example embodiment, the group administered orally with lobeglitazone, and the group administered with no drug. FIG. 9 is a photograph illustrating an atherosclerotic plaque in the carotid extracted from the mouse by CD 206 staining (macrophage mannose receptor staining), MAC3 staining (macrophage staining), and H&E staining, before administrating the drug and after administrating the drug for four weeks, respectively, in a group (MMR-lobe) administrated with a glycol chitosan drug carrier encapsulated with lobeglitazone, a group (PO-Lobe) orally administrated with lobeglitazone, and a group (Control) administered with no drug, respectively.

COc1ccc(Oc2cc(N(C)CCOc3ccc(CC4SC(=O)NC4=O)cc3)ncn2)cc1 (stereo not drawn) [lobeglitazone]
inflammation degree of the atherosclerosis ([1]; images (FIGS. 5A-5C)): not largely changed
size of the atherosclerosis ([1]; images (FIGS. 5A-5C)): not largely changed
fluorescence intensity expressed in the atherosclerotic plaque ([1]; quantified (FIG. 6)): no difference
CD 206 (macrophage mannose receptor staining) ([2]; CD 206 staining): decreased
size of the atherosclerotic plaque ([2]; H&E staining): decreased
MAC3 (macrophage staining) ([2]; MAC3 staining): decreased

— patent US10086077B2, “Activated macrophage targetable drug carrier for treatment of atherosclerosis and methods of preparing the same” (Korea University Research and Business Foundation, priority 2016, dated 2018)
